The source made the active and inactive calls.
Tests used:
[1] = target: Paired box protein Pax-8 (Homo sapiens, UniProt Q06710); test: inhibitors of PAX8-driven TPO luciferase reporter, dose response, RMG-I cells, cherry-pick (AID 687027); assay type: functional, cell-based;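 further: luciferase reporter driven by Pax8 target thyroperoxidase promoter measured by SteadyGlo luminescence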
[2] = NIH:OVCAR-3 ovarian cancer cell cytotoxicity, dose response, PAX8 inhibitor project, plate reader, dry powder samples (AID 743044); assay type: functional, cell-based
[3] = cytotoxicity in OVCAR8 ovarian cancer cells, dose response, PAX8 project, cell-based, plate reader, dry powder samples (AID 743197); assay type: functional; details: OVCAR-8
[4] = A Cell Based Secondary Assay To Explore Cytotoxicity of Compounds that Sensitize Mycobacterium Tuberculosis to Beta-Lactam Antibiotics.; assay type: functional
[5] = growth suppression of beta-catenin-knockout colon cells, dose response, cell-based, HCT116, human colon tumor (AID 1045); assay type: functional;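 further: HCT116 colon tumor cells with beta catenin knocked out; cells exposed to compound for 60 hours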
[6] = growth suppression of PTEN-null colon cells, dose response, cell-based, HCT116 PTEN knockout (AID 1047); assay type: functional;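 further: HCT116 colon tumor cells with PTEN knocked out; cells exposed to compound for 60 hours before readout; potency for loss of cell viability measured by luminescence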
[7] = target: T1, Sentrin-specific protease 8 (Homo sapiens, UniProt Q96LD8); assay type: functional
T1 sequence (Q96LD8 whole entry): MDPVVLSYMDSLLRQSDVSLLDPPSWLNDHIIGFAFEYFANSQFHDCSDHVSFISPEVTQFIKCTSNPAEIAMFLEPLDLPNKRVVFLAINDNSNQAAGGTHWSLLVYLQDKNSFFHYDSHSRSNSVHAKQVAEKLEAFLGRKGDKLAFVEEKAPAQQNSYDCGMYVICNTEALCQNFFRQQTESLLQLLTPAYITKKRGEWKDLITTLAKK

[8] = target: T1, Sentrin-specific protease 8; assay type: functional; remark: listed apart in the source
[9] = target: FAD-linked sulfhydryl oxidase ALR (Homo sapiens, UniProt P55789); test: inhibitors of human ALR sulfhydryl oxidase, dose response, biochemical, H2O2 detection, luminescence, cherry-pick (AID 493248)
[10] = Luminescence Cell-Based Dose Retest to Confirm Inhibitors of Cancer Stem Cells. [Related pubchem assays (depositor defined):AID2717, AID2721]; assay type: functional; details: Homo sapiens
[11] = Shn3 3'UTR reporter inhibitors, dose response, cell-based, Clone20 osteoblasts, firefly luciferase, cherry-picked (AID 624132); assay type: functional;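 further: firefly luciferase luminescence from reporter carrying the Shn3 3'UTR in osteoblasts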
[12] = HepG2 cell cytotoxicity, dose response, cytotoxicity control for Shn3 inhibitor project, CellTiter-Glo, cherry-picked (AID 624134); assay type: functional, cell-based
[13] = control 3'UTR Renilla luciferase suppression, dose response, counter-screen for Shn3 inhibitor project, cell-based, Clone20-Shn3RL, cherry-picked (AID 624133); assay type: functional
[14] = microbe, parasite or virus in culture; assay type: functional; details: Mycobacterium tuberculosis
[15] = off-target signal loss in HeLa-CEM21 co-culture – HeLa F-luc CTL cells, cherry-picked, counter-screen for HIV-1 Env fusion inhibitor project, dose response (AID 652040); assay type: functional, cell-based;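 further: potency for signal decrease marking cytotoxic or nonspecific inhibition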
[16] = inhibitors of clade B AD8 Env fusion, dose response, cell-based, cherry-pick (AID 652062); assay type: functional;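 further: luciferase signal from cell-cell fusion driven by HIV-1 clade B AD8 Env; potency is for inhibitors of fusion seen as a drop in luminescence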
[17] = inhibitors of HIV Env-driven cell fusion, dose response, cherry-pick (AID 652057); assay type: functional, cell-based
[18] = ZM109 Env clade C HIV-1 fusion inhibitors, dose response, HeLa effector, CEM target cells, luciferase, cherry-pick (AID 652058); assay type: functional, cell-based
[19] = target: T2, Caspase-3 (Homo sapiens, UniProt P42574); assay type: functional;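 further: Dose-response selectivity test against caspase-3 for candidate inhibitors of sentrin-specific proteases (SENPs)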
T2 sequence (P42574 whole entry): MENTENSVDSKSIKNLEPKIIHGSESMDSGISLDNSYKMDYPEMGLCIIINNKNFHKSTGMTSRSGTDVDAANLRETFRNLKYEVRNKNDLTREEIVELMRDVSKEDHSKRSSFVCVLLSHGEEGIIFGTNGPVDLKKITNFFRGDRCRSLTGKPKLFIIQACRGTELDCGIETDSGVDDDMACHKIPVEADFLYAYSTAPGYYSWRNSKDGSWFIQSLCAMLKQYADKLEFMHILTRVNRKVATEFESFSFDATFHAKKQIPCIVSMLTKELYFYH

[20] = target: T3, Sentrin-specific protease 7 (Homo sapiens, UniProt Q9BQF6); assay type: functional;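 further: Luminescence-based dose-response confirmation of ultra-high-throughput screening hits, measuring inhibition of SENP7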
T3 sequence (Q9BQF6 whole entry): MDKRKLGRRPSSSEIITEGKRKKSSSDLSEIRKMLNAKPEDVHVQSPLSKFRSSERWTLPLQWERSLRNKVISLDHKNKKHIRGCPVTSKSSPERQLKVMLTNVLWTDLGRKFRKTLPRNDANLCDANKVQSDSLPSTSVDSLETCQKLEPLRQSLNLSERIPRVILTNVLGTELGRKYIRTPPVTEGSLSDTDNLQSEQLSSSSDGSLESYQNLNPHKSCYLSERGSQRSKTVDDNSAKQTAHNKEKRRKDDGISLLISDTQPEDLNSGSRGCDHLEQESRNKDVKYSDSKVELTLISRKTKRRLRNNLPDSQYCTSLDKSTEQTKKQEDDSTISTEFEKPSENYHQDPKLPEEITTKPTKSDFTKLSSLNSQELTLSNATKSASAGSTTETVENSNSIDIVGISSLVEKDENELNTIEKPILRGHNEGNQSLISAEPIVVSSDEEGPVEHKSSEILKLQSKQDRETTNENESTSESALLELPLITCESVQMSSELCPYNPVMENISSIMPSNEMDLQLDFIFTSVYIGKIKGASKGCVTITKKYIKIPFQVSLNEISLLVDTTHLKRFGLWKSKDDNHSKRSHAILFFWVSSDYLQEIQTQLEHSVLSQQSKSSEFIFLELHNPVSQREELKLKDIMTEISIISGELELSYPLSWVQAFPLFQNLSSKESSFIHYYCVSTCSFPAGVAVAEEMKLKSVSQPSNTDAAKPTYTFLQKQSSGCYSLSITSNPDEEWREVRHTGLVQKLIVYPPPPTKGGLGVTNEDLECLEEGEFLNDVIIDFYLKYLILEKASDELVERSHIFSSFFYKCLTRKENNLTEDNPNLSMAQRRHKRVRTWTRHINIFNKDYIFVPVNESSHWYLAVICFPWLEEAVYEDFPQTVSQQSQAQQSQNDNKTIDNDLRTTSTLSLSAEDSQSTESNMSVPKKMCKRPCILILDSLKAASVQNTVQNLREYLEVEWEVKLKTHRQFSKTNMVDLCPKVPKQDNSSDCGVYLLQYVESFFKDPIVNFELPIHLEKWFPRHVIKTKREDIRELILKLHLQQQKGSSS

[21] = target: T1, Sentrin-specific protease 8; assay type: functional; remark: listed apart in the source
[22] = target: T4, Sentrin-specific protease 6 (Homo sapiens, UniProt Q9GZR1); assay type: functional;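 further: Luminescence-based dose-response confirmatory assay of SENP6 inhibition, following up an ultra-high-throughput screen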
T4 sequence (Q9GZR1 whole entry): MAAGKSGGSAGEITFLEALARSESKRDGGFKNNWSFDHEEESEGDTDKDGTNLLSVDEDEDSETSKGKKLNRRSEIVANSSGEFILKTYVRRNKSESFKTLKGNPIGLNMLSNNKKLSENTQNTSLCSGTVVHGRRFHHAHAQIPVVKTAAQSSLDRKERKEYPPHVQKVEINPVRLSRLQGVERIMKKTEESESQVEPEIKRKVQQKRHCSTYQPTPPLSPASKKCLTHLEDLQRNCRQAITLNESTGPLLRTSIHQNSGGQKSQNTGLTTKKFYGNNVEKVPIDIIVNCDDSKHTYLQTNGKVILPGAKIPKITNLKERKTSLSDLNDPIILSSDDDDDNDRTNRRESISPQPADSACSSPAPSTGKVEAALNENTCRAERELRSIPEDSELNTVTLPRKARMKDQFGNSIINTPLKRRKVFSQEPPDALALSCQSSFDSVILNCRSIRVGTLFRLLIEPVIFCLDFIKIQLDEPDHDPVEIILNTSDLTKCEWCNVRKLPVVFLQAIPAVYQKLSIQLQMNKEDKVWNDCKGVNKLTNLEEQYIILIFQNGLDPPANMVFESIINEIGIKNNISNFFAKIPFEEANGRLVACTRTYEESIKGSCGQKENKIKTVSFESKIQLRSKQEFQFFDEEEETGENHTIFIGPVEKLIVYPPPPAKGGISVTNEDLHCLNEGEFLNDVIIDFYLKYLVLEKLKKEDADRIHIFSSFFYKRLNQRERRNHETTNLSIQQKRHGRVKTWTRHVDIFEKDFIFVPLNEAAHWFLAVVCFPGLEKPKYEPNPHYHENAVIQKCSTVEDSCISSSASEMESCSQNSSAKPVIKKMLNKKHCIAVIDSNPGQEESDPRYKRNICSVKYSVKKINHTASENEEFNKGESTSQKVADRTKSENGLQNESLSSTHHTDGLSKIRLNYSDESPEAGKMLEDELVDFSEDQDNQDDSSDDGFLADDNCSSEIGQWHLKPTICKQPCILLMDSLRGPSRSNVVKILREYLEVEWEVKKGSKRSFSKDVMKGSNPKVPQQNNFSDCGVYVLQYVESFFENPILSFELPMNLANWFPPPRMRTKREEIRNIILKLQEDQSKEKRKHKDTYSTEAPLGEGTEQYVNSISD

Paired box protein Pax-8, sequence (Q06710 whole entry): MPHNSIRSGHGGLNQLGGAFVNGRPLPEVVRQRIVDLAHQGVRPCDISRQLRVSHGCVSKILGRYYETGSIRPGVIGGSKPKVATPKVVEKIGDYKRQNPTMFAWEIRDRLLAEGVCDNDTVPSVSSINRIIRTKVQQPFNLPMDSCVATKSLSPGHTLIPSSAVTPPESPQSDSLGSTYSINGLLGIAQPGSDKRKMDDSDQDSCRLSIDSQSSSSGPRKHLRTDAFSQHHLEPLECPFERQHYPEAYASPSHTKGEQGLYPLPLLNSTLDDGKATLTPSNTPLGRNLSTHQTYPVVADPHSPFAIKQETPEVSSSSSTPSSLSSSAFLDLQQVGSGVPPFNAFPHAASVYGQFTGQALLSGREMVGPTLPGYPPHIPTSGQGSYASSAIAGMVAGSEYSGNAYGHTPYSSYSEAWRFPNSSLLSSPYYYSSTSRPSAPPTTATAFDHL
FAD-linked sulfhydryl oxidase ALR, sequence (P55789 whole entry): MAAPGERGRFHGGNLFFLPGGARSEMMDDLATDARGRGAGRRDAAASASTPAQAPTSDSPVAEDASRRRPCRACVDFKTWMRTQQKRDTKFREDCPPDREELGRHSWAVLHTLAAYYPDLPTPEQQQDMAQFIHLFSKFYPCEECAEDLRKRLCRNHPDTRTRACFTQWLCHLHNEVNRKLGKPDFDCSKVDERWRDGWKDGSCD

O=C(Nc1ccc(F)cc1)N1CC(=O)N2[C@@H](CO)[C@@H](c3ccc(C#Cc4ccc(F)cc4)cc3)[C@@H]2C1
AC50 [1]: 10.4 µM (active) | AC50 [2]: 16.2 µM (active) | AC50 [3]: > 70 µM (inactive)

Cc1ccc(C(=O)c2sc3c(c2N)c(=O)[nH]c(=O)n3CCc2ccccc2)cc1
CC50 [4]: 25.1 µM (active) | EC50 [5]: 9.5 µM (active) | EC50 [6]: 10.7 µM (active)

CN(C)c1ccc(NC(=O)Oc2ccccc2)cc1
IC50 [7]: 78.1 µM (inactive) | IC50 [8]: > 100 µM (inactive) | AC50 [9]: 1.88 µM (active)

CC(C)(C)NCCCOc1ccc(Cl)cc1C(C)(C)C
CC50 [4]: 39.3 µM (active)

O=C(Nc1ccc(S(=O)(=O)N2CCCCC2)cc1)C1CCCN(C(=O)c2ccc(Cl)cc2)C1 (centres undefined)
CC50 [4]: > 40 µM (active)

CCOc1cc2c(cc1OCC)-n1cccc1C(c1ccc(C(C)C)cc1)NC2 (centres undefined)
AC50 [10]: 11.4 µM (active) | AC50 [11]: 7.22 µM (active) | AC50 [12]: 67.7 µM (active) | AC50 [13]: 4.99 µM (active) | CC50 [14]: > 40 µM (active)

COc1ccc(/C=C2/CCCC(C(=O)C(F)(F)F)=C2O)cc1OC
CC50 [4]: > 40 µM (active)

CCOC(=O)C1(Cc2ccc(Cl)cc2)CCN(C(C)Cc2ccc(O)c(OC)c2)CC1 (centres undefined)
AC50 [11]: 1.33 µM (active) | AC50 [12]: 17.6 µM (active) | AC50 [13]: 2.65 µM (active)

COC(=O)[C@@]1(C)[C@H]2C(=O)N(Cc3ccccc3)C(=O)[C@H]2[C@H]2CN=C(SCc3ccc(C#N)cc3)N21
AC50 [15]: 1.09 µM (active) | AC50 [16]: 0.609 µM (active) | AC50 [17]: 0.566 µM (active) | AC50 [18]: 0.785 µM (active)

COc1ccccc1N1CCN(S(=O)(=O)c2ccc3[nH]c(-c4ccccc4)nc3c2)CC1
CC50 [4]: > 40 µM (active)

CCOc1ccccc1Nc1cc(C)nc2ccccc12
AC50 [11]: 8.14 µM (active) | AC50 [12]: 48.6 µM (active) | AC50 [13]: 5.31 µM (active)

C[C@H]1CN([C@@H](C)CO)C(=O)c2c(c3ccccc3n2C)-c2ccccc2CO[C@@H]1CN(C)S(=O)(=O)c1ccsc1
AC50 [1]: 3.6 µM (active) | AC50 [2]: 51.1 µM (active)

COC(=O)c1ccc(-c2ccc(F)cc2)nc1C
IC50 [19]: 13.2 µM (active) | IC50 [20]: 8.25 µM (active) | IC50 [21]: 64.9 µM (active) | IC50 [22]: 31.9 µM (active)

CN(c1ccccc1)S(=O)(=O)c1ccc(Cl)c(C(=O)Nc2nc3ccccc3[nH]2)c1
AC50 [15]: 5.75 µM (active) | AC50 [16]: 5.66 µM (active) | AC50 [17]: 3.18 µM (active) | AC50 [18]: 1.6 µM (active)

COc1ccc(C(C(=O)NC(C)(C)C)N(CCC(C)C)C(=O)CCC(=O)Nc2cc(C)on2)cc1 (centres undefined)
AC50 [15]: 16.6 µM (active) | AC50 [16]: 22.8 µM (active) | AC50 [17]: 7.02 µM (active) | AC50 [18]: 18.1 µM (active)

COc1cccc(C(=O)NC(=S)Nc2ccc(N(C)C)cc2)c1
IC50 [19]: 10.7 µM (active) | IC50 [20]: 6.14 µM (active) | IC50 [21]: 21 µM (active) | IC50 [22]: 16.1 µM (active)

C[C@H](CO)N1C[C@H](C)[C@H](CN(C)C(=O)c2ccncc2)OCc2ccccc2-c2c(n(C)c3ccccc23)C1=O
AC50 [16]: 33.1 µM (active) | AC50 [17]: 9.94 µM (active) | AC50 [18]: 4.23 µM (active)
